We go through one compound from ChEMBL document CHEMBL5365529, “Construction and Evaluation of Novel Dual-function Antifungal Inhibitors and Covalent Organic Framework Carriers Based on the Infection Microenvironment” (J Med Chem, 2023).

The subject of series [1] is Candida albicans. The series is described as follows: Induction of immunity in BALB/c mouse infected with Candida albicans 901 assessed as decrease in PD-L1 level at 0.5 ug/g administered 6 times measured after 4 days in presence of Ketoconazole by IHC analysis. It is filed as functional, organism-based. The note with it: dose 0.5 µg/g, time 4.0 day.
For series [2], the system named is Candida albicans. In words: Antifungal activity against Candida albicans 901 infected in BALB/c mouse assessed as inhibition of fungal proliferation at 0.5 ug/g administered 6 times measured after 4 days in presence of Ketoconazole by Masson staining based analysis. In kind it is functional, organism-based. The conditions noted are these: dose 0.5 µg/g, time 4.0 day.

Series [3] is described as follows: Toxicity in BALB/c mouse infected with Candida albicans 901 assessed as pathological change in spleen at 0.5 ug/g administered 6 times measured after 4 days in presence of Ketoconazole by H and E staining based analysis. It is filed as tissue-based. The note with it: in vivo, 96 h, dose 0.5 µg/g, time 4 day.
Series [4] deals with Candida albicans. In words: Antifungal activity against Candida albicans 901 infected in BALB/c mouse assessed as inhibition of fungal proliferation at 0.5 ug/g administered 6 times measured after 4 days in presence of Ketoconazole by GMS staining based analysis. It is filed as functional, organism-based. The note with it: dose 0.5 µg/g, time 4.0 day.
Series [5] can be described thus: Toxicity in BALB/c mouse infected with Candida albicans 901 assessed as pathological change in kidney at 0.5 ug/g administered 6 times measured after 4 days in presence of Ketoconazole by H and E staining based analysis. In kind it is tissue-based. The note with it: in vivo, 96 h, dose 0.5 µg/g, time 4 day.
In series [6] the test system is Candida albicans. In words: Induction of immunity in BALB/c mouse infected with Candida albicans 901 assessed as decrease in PD-L1 level at 0.5 ug/g administered 6 times measured after 4 days in presence of Ketoconazole by Western blot analysis. The conditions noted are these: dose 0.5 µg/g, time 4.0 day. It is filed as functional, organism-based.
Series [7] is described as follows: Toxicity in BALB/c mouse infected with Candida albicans 901 assessed as pathological change in heart at 0.5 ug/g administered 6 times measured after 4 days in presence of Ketoconazole by H and E staining based analysis. In kind it is tissue-based. The note with it: in vivo, 96 h, dose 0.5 µg/g, time 4 day.
Series [8] has as its target Programmed cell death 1 ligand 1 (Homo sapiens, UniProt Q9NZQ7). The series is described as follows: Inhibition of human PD-L1 incubated for 15 mins by ELISA method.
The subject of series [9] is Candida albicans. In words: Antifungal activity against Candida albicans 901 infected in BALB/c mouse assessed as decrease in collagen fiber content at 0.5 ug/g administered 6 times measured after 4 days in presence of Ketoconazole by Masson staining based analysis. It is filed as functional, organism-based. The note with it: dose 0.5 µg/g, time 4.0 day.
In series [10] the test system is Candida albicans. In words: Antifungal activity against Candida albicans 901 infected in BALB/c mouse assessed as decrease in collagen fiber content at 0.5 ug/g administered 6 times measured after 4 days in presence of Ketoconazole by GMS staining based analysis. It is filed as functional, organism-based. The note with it: dose 0.5 µg/g, time 4.0 day.
For series [11], the system named is Candida albicans. In words: Antifungal activity against Candida albicans 901 infected in BALB/c mouse assessed as repair of tissue damage at 0.5 ug/g administered 6 times measured after 4 days in presence of Ketoconazole by GMS staining based analysis. The conditions noted are these: dose 0.5 µg/g, time 4.0 day. In kind it is functional, organism-based.
The nature of series [12]: Toxicity in BALB/c mouse infected with Candida albicans 901 assessed as pathological change in lung at 0.5 ug/g administered 6 times measured after 4 days in presence of Ketoconazole by H and E staining based analysis. It is filed as tissue-based. The note with it: in vivo, 96 h, dose 0.5 µg/g, time 4 day.
Series [13] can be described thus: Toxicity in BALB/c mouse infected with Candida albicans 901 assessed as pathological change in liver at 0.5 ug/g administered 6 times measured after 4 days in presence of Ketoconazole by H and E staining based analysis. In kind it is tissue-based. The note with it: in vivo, 96 h, dose 0.5 µg/g, time 4 day.
In series [14] the test system is Candida albicans. The series is described as follows: Antifungal activity against Candida albicans 901 infected in BALB/c mouse assessed as repair of tissue damage at 0.5 ug/g administered 6 times measured after 4 days in presence of Ketoconazole by Masson staining based analysis. In kind it is functional, organism-based. The conditions noted are these: dose 0.5 µg/g, time 4.0 day.

The source made the active and inactive calls. The rule behind the calls is not given here.

Programmed cell death 1 ligand 1, sequence (Q9NZQ7 whole entry): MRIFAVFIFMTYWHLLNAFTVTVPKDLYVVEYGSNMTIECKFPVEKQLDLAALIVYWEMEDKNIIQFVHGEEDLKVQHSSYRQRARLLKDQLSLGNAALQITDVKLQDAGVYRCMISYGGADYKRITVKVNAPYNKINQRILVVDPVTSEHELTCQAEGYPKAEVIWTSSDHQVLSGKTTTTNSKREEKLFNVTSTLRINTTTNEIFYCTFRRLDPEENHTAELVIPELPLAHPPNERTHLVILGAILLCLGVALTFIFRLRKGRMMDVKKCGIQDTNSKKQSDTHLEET

In the case of `O=C(O)[C@@H](CO)NCc1cc(Cl)c(OCc2cccc(-c3ccccc3)c2Br)cc1OCc1cccnc1`, the outcome with Candida albicans [1], in the series with Candida albicans [6], in the series on Candida albicans [9], with Candida albicans [10], with Candida albicans [11] and in the series on Candida albicans [14] was Active. Further, the inhibition entry with Candida albicans [2] and in the series on Candida albicans [4] was “Active” throughout. In addition, the Activity entry in series [3], in series [5], in [7], in [12] and in series [13] was “Non-Toxic” in each case. In series [8], this compound showed an IC50 of 22 nM.
